From patent US20180193294A1, “Dehydroabietic acid (DHAA) derivatives for use as ion channel openers” (priority 2015, published 2018)

Assays:
[1] = tested on: dorsal root ganglion (DRG) neurons; assay: Resting membrane potential of DRG neurons, whole-cell current clamp; assay type: cell-based, mice; settings: 10 μM, pH 7.4, 120 s application
Procedure: (§1) All animal experiments were approved by the local Animal Care and Use Committee and followed international guidelines. Five female 7-12 week-old C57BL/6 mice (Scanbur) were used for this study. The mice were anaesthetized with isoflurane and decapitated. Dorsal root ganglia (DRG) were dissected from all spinal levels and enzymatically digested with collagenase (250 CDU/ml) for 15 min, and then trypsin (1 mg/ml) was added for another 30 min. The ganglia were centrifuged and resuspended in Leibovitz L-15 media with glutamine, supplemented with 10% fetal calf serum, 38 mM glucose, 24 mM NaHCO3 and penicillin/streptomycin. The ganglia were triturated and the DRG neurons plated on poly-D-lysine coated plastic coverslips. The neurons were cultured at 37° C. with 5% CO2 for 2-3 days before the electrophysiological recordings.
(§2) All manual electrophysiological recordings were performed at room temperature (20-23° C.), using a GeneClamp 500B amplifier (for oocytes) or a Axopatch 200B amplifier (for manual patch clamp of CHO—K1 cells and DRG neurons) and a Digidata 1440A digitizer and pClamp 10 software (all from Molecular Devices, Inc., Sunnyvale, Calif., USA). Compounds were dissolved to 100 mM in 99.5% EtOH and stored at −20° C. Compounds were diluted in extracellular solution to the desired test concentration.
(§3) CHO—K1 Cells were plated on coverslips 2 h before the manual electrophysiological recordings. Coverslips with CHO—K1 cells or DRG neurons were placed in a recording chamber and perfused with extracellular solution by a gravity-fed perfusion system. Substances were applied by a pressurized, automated OctaFlow perfusion system (ALA Scientific Instruments). The signals were sampled at 5-20 kHz after low-pass filtering at 2-5 kHz. For CHO—K1 cells the intracellular solution contained (in mM): 120 K-gluconate, 10 KCl, 5 EGTA, 10 HEPES, 4 Mg-ATP, 0.3 Na-GTP, pH 7.3; the extracellular solution contained (in mM): 135 NaCl, 4 KCl, 10 HEPES, 1 MgCl2, 1.8 CaCl2, 10 glucose, pH 7.4. Currents were evoked in CHO—K1 cells in whole-cell voltage-clamp mode from a holding potential of −80 mV by 100-ms long, 10-mV steps ranging from −80 to +80 mV.
(§4) For DRG neurons the intracellular solution contained (in mM): 120 K-gluconate, 10 KCl, 1 EGTA, 10 HEPES, 4 Mg-ATP, 0.3 Na-GTP, pH 7.3; the extracellular solution contained (in mM): 144 NaCl, 2.5 KCl, 10 HEPES, 0.5 MgCl2, 2 CaCl2, 10 glucose, pH 7.4. A liquid-junction potential of approximately −14 mV was corrected for. […] Small and medium sized DRG neurons were selected for whole-cell current-clamp recording. 10 μM of the compounds were applied for 120 s to study the effect on the resting membrane potential, and for 45-120 s to study the effects on evoked action potentials. To evoke action potentials 800-ms depolarizing pulses
The compound effect on the resting membrane potential Vm was determined by subtracting the control pre-compound Vm from the Vm at the end of the 120 s application of test compound.

[2] = tested on: dorsal root ganglion (DRG) neurons; assay: Evoked action potentials (excitability) of DRG neurons, current clamp; assay type: cell-based, mice; settings: 10 μM; for effect on the after hyperpolarization: cell with single action potential; for effect on resting potential, cell with single action potential: constant current pulse; for effect on train of action potentials: continuous pulse
Procedure: as §1, §2, §3, §4

3R Shaker K channel = 3R Shaker K channel (Drosophila melanogaster, UniProt P08510, A359R/M356R); assay: G(V) shift of 3R Shaker K channel stably expressed in CHO-K1 cells, whole-cell patch clamp; assay type: cell-based; settings: 10 μM, pH 7.4
Text: All animal experiments were approved by the local Animal Care and Use Committee and followed international guidelines. A modified Shaker H4 channel^30, with removed N-type inactivation (ShH4IR)^31, here called the wild type (WT) channel, was expressed in oocytes. In addition, a modified 3R Shaker K channel where two introduced positive charged arginines (M356R and A359R) in addition to one native arginine (R362) makes the channel more sensitive to DHA^16, was expressed in oocytes and in a CHO—K1 stable cell line.
For the modified 3R Shaker K channel a stable cell line was generated. The construct was cloned into the pcDNA3 vector. CHO—K1 cells were plated into T75 culture flasks and grown without penicillin/streptomycin. […]
where IK is the average current from the steady-state phase at the end of each 100-ms pulse, V is the membrane voltage, and Vrev is the reversal potential for K^+, (set to −80 mV for the oocytes, and calculated to be −89 mV for the CHO—K1 cells).
where A is amplitude of the curve, V is the absolute membrane voltage, V1/2 is the midpoint, s is the slope and n is an exponent set to 4^17. The compound-induced G(V) shift was determined at the 10% level of the maximum conductance in control solution^17. The compound-induced G(V) shift in CHO—K1 was quantified by subtracting the control V1/2 from the compound V1/2 when n was set to 1.

Chain of 3R Shaker K channel (P08510 whole entry M356R/A359R): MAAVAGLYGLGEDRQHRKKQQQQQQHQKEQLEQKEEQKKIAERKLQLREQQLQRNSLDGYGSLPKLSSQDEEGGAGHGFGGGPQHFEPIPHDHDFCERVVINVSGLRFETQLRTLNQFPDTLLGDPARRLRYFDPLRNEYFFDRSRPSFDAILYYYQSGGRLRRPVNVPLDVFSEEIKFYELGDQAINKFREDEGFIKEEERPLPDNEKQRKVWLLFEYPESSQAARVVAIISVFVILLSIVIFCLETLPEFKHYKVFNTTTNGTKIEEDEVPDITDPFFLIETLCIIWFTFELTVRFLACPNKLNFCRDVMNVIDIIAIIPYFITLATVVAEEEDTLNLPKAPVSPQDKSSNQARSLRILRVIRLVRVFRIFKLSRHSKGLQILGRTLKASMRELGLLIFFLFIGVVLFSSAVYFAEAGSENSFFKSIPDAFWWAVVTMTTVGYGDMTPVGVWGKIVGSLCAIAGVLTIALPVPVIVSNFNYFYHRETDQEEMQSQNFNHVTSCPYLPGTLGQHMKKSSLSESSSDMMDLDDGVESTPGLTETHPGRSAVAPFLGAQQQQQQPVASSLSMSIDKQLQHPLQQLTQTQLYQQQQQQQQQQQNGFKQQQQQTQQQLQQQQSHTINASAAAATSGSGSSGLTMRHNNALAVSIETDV

Row | Structure (SMILES) | shift of the resting membrane potential (ΔVm) [1] | effect on the after hyperpolarization [2] | effect on resting potential, cell with single action potential [2] | effect on train of action potentials [2] | G(V) shift in CHO cells (3R Shaker K channel)
1 | CO/N=C1\CC2[C@](C)(C(=O)O)CCC[C@]2(C)c2cc(Br)c(C(C)C)cc21 (stereo partly drawn) [Wu32, (1R,4aS,E)-6-bromo-7-isopropyl-9-(methoxyimino)-1,4a-dimethyl-1,2,3,4,4a,9,10,10a-octahydrophenanthrene-1-carboxylic acid] | intermediately potent hyperpolarizers | – | – | – | –
2 | CC(C)c1ccc2c(c1)C(C(=O)O)CC1[C@](C)(C(=O)O)CCC[C@]21C (stereo partly drawn) [Wu35] | −1.1±0.4 | only a very small effect | almost no effect | almost no effect on the same cell | very poor shifter
3 | C[C@@]1(C(=O)O)CCC[C@]2(C)c3cc(Cl)c(Cl)c(Cl)c3CCC12 (stereo partly drawn) [Wu50, (1R,4aS)-6,7,8-trichloro-1,4a-dimethyl-1,2,3,4,4a,9,10,10a-octahydrophenanthrene-1-carboxylic acid] | – | pronounced effect | made the resting potential more negative | completely abolished all action potentials | –
